Among the data in PubChem BioAssay (NCI) are TGI values, retold here.

Common to all, as to test: NCI-60 cell line screen, 48 h
For test [1], the system named is HCC-2998 colon.
The test system of test [2] is HL-60(TB) leukemia.
Test [3] deals with SK-MEL-2 melanoma.
Test [4] relates to SK-MEL-28 melanoma.
Test [5] concerns UACC-62 melanoma.
Test [6] concerns A549 NSCLC.
Test [7] concerns OVCAR-5 ovarian.
The subject of test [8] is IGROV1 ovarian.
Test [9] concerns NCI/ADR-RES ovarian.
Test [10] concerns DU-145 prostate.
For test [11], the system named is MDA-MB-231 breast.

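1) Cells in 96-well plates. 2) Compound, 48 h, 5 concentrations. 3) Linear interpolation between surrounding doses. 4) Unreached endpoint = highest concentration. Definition used: TGI = concentration required for complete inhibition of growth.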

Regarding `CCOC(=O)C(=O)Nc1ccccc1C`, the TGI in [1], in test [2], in test [3], in test [4], in test [5] and in [6] was above 100 µM throughout. Besides, the TGI in test [7] and in test [8] was above 100 µM each time.
For the compound `N#CN/C(N)=N/C/N=C(\N)NC#N`, the TGI in test [1], in test [2], in test [3], in [4], in [5] and in test [6] was above 100 µM throughout. The TGI in [7] and in test [8] was above 100 µM in each case.
On to `CCN(CC)CCCNc1ccc2nc(C)n3c4ccc(O)cc4c(=O)c1c23`, for which the TGI in test [1] was 22.6 µM; in test [2], above 21.1 µM; in test [3] it was 21.3 µM; in test [4], 26.6 µM; in test [9], 29.6 µM; in test [5] it was 23.5 µM. For the same compound, the TGI in test [6] is 18.7 µM; in [10], 19.7 µM; in [7], 20.2 µM; in [8], 9.79 µM.
In the case of `NC1=C(NC(=O)Cc2ccccc2F)C(=O)c2ccccc2C1=O`, the TGI in [1], in test [2], in test [3], in test [4], in [5] and in test [6] was above 100 µM each time. Besides, the TGI in [8] was above 100 µM.
On to `O=C(/C=C/c1cccc(Oc2ccccc2)c1)NCc1ccc(C(=O)NCc2ccccc2)cc1`, for which the TGI in test [11], in test [1], in test [3], in test [4], in test [9] and in [5] was above 100 µM throughout. The TGI in test [6], in test [10], in test [7] and in test [8] was above 100 µM in each case.
As to `O=C(/C=C/c1ccc(-c2ccccc2)cc1)NCc1ccc(C(=O)NCc2ccccc2)cc1`, the TGI in [11], in test [1], in test [3], in [4], in [9] and in [5] was above 100 µM in each case. The TGI in test [6], in [10], in [7] and in test [8] was above 100 µM each time.
Turning to `CC1=Nc2c(ccc3c2C(=O)c2ccccc2C3=O)NC(c2cccc3c2CCC3)C1` (configuration not stated), the TGI in test [1], in test [2], in [3], in test [4], in [5] and in [6] was above 100 µM each time. Further, the TGI in test [7] and in [8] was above 100 µM throughout.
Turning to `CC1=NC2=Nc3nc(C)cc[n+]3CN2C=C1`, the TGI in test [11], in test [1], in [3], in test [4], in [9] and in test [5] was above 100 µM each time. Besides, the TGI in [6], in test [10], in test [7] and in [8] was above 100 µM in each case.
In the case of `C/C(=N\N=C(\N)SB(F)F)c1ccc2ccccc2c1`, the TGI in test [11], in [1], in test [3], in test [4], in test [9] and in [5] was above 100 µM in each case. Further, the TGI in [6], in test [10], in test [7] and in test [8] was above 100 µM in each case.
Consider `CC(NC(=O)NC(C)(C)C)NC(=O)C(N)CC(=O)O` (configuration not stated), for which the TGI in test [11], in test [3], in test [4], in test [9], in test [5] and in test [6] was above 100 µM throughout. The TGI in [10], in test [7] and in test [8] was above 100 µM in each case.
As for `O=C1C(Br)=C(c2ccccc2)O/C1=C/C(=O)c1ccc(Br)cc1`, the TGI in test [11] is above 100 µM; in test [1], above 100 µM; in test [2], 52.4 µM; in [4] it was above 100 µM; in [5], above 100 µM; in test [10], above 100 µM. Besides, the TGI in test [7] and in [8] was above 100 µM throughout.
As to `CC(=O)OCC1OC(n2cc(F)c(=O)[nH]c2=O)C(NC(=O)OCc2ccccc2)C(OC(C)=O)C1OC(C)=O` (configuration not stated), the TGI in test [1], in test [2], in test [3], in test [4], in [9] and in [5] was above 100 µM throughout. Besides, the TGI in test [6], in test [7] and in [8] was above 100 µM in each case.
On to `O=S(=O)(O)c1cc(N=Nc2c(O)ccc3ccccc23)ccc1/C=C/c1ccc(N=Nc2c(O)ccc3ccccc23)cc1S(=O)(=O)O`, for which the TGI in [11], in test [3], in [4], in test [9], in test [5] and in test [6] was above 100 µM throughout. Besides, the TGI in test [7] and in [8] was above 100 µM throughout.
`CC1=C(C(=O)CC(=O)C(=O)Nc2cc(C)ccc2C)Sc2ccccc2N1`: the TGI in test [1], in [2], in [3], in [4], in test [5] and in test [6] was above 100 µM in each case. Besides, the TGI in [7] and in test [8] was above 100 µM in each case.
`Cc1nc(CC#N)n[nH]1`: the TGI in test [11], in test [1], in test [3], in [9], in test [5] and in test [6] was above 100 µM throughout. For the same compound, the TGI in test [10], in [7] and in test [8] was above 100 µM each time.
